Results reported in patent US20120053053A1, “PYRIMIDINE DERIVATIVES AND THEIR USE AS HERBICIDES” (SYNGENTA CROP PROTECTION, LLC, priority 2009, published 2012).

Experiments:
Type in all cases: in vivo
[1] = system: Alopecurus myosuroides (ALOMY); assay: Pre-emergence biological efficacy (percentage damage); settings: dose 1,000 g/ha, evaluated after 13 days, 100=total damage, 0=no damage; for pest or weed control at 1000 g/ha: Alopecurus myosuroides, 312 h
How it was run: (§1)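 Seeds were sown in standard soil in pots and, one day later, sprayed with test compound at 250 or 1000 g/ha in acetone/water (50:50) with 0.5% Tween 20. Plants grew in a glasshouse at 24/16 °C day/night, 14 h light, 65% humidity; damage was scored after 13 days (0 = none, 100 = total).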

[2] = system: Amaranthus retoflexus (AMARE); assay: as above; settings: dose 1,000 g/ha, evaluated after 13 days, 100=total damage, 0=no damage; for pest or weed control at 1000 g/ha: Amaranthus retroflexus, 312 h
How it was run: as §1

[3] = system: Echinochloa crus-galli (ECHCG); assay: as above; settings: dose 1,000 g/ha, evaluated after 13 days, 100=total damage, 0=no damage; for pest or weed control at 1000 g/ha: Echinochloa crus-galli, 312 h
How it was run: as §1

[4] = system: Ipomea hederaceae (IPOHE); assay: as above; settings: dose 1,000 g/ha, evaluated after 13 days, 100=total damage, 0=no damage; for pest or weed control at 1000 g/ha: Ipomoea hederacea, 312 h
How it was run: as §1

Setaria faberi (SETFA) [5] = assay: as above; settings: dose 1,000 g/ha, evaluated after 13 days, 100=total damage, 0=no damage; for pest or weed control at 1000 g/ha: Setaria faberi, 312 h
How it was run: as §1

Solanum nigrum (SOLNI) [6] = assay: as above; settings: dose 1,000 g/ha, evaluated after 13 days, 100=total damage, 0=no damage; for pest or weed control at 1000 g/ha: Solanum nigrum, 312 h
How it was run: as §1

[7] = system: Alopecurus myosuroides (ALOMY); assay: Post-emergence biological efficacy (percentage damage); settings: dose 1,000 g/ha, evaluated after 13 days, 100=total damage, 0=no damage; for pest or weed control at 1000 g/ha: Alopecurus myosuroides, 312 h
How it was run: (§2)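 Percentage damage (0 no damage to 100 total) was assessed 13 days after spraying plants raised for 8 days in pots. Test compound was applied as an aqueous acetone/water (50:50) spray containing 0.5% Tween 20 to give 250 or 1000 g/ha.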

[8] = system: Amaranthus retoflexus (AMARE); assay: as above; settings: dose 1,000 g/ha, evaluated after 13 days, 100=total damage, 0=no damage; for pest or weed control at 1000 g/ha: Amaranthus retroflexus, 312 h
How it was run: as §2

[9] = system: Echinochloa crus-galli (ECHCG); assay: as above; settings: dose 1,000 g/ha, evaluated after 13 days, 100=total damage, 0=no damage; for pest or weed control at 1000 g/ha: Echinochloa crus-galli, 312 h
How it was run: as §2

[10] = system: Ipomea hederaceae (IPOHE); assay: as above; settings: dose 1,000 g/ha, evaluated after 13 days, 100=total damage, 0=no damage; for pest or weed control at 1000 g/ha: Ipomoea hederacea, 312 h
How it was run: as §2

Setaria faberi (SETFA) [11] = assay: as above; settings: dose 1,000 g/ha, evaluated after 13 days, 100=total damage, 0=no damage; for pest or weed control at 1000 g/ha: Setaria faberi, 312 h
How it was run: as §2

Solanum nigrum (SOLNI) [12] = assay: as above; settings: dose 1,000 g/ha, evaluated after 13 days, 100=total damage, 0=no damage; for pest or weed control at 1000 g/ha: Solanum nigrum, 312 h
How it was run: as §2

Compound `COC(=O)c1nc(-c2ccc(Cl)c(N(C)C)c2F)nc(N)c1C(C)=O` [Compound 33-53, 4-Amino-2-(4-chloro-3-dimethylamino-2-fluorophenyl)-6-methoxycarbonyl-5-methylcarbonyl-pyrimidine] has a pest or weed control at 1000 g/ha [1] of 0%, a pest or weed control at 1000 g/ha [2] of 0% and a pest or weed control at 1000 g/ha [3] of 0%. For the same compound, the pest or weed control at 1000 g/ha [4] was 0%, the pest or weed control at 1000 g/ha (Setaria faberi (SETFA) [5]) was 0% and the pest or weed control at 1000 g/ha (Solanum nigrum (SOLNI) [6]) was 0%. For the same compound, the pest or weed control at 1000 g/ha [7] was 10%, the pest or weed control at 1000 g/ha [8] was 100% and the pest or weed control at 1000 g/ha [9] was 20%. The pest or weed control at 1000 g/ha [10] was 40%, the pest or weed control at 1000 g/ha (Setaria faberi (SETFA) [11]) was 20% and the pest or weed control at 1000 g/ha (Solanum nigrum (SOLNI) [12]) was 50%.
Work on `C=Cc1c(N)nc(-c2ccc(Cl)c(N(C)C)c2F)nc1C(=O)OCCOCC` [Compound 33-396, 4-Amino-2-(4-chloro-3-dimethylamino-2-fluorophenyl)-5-ethenyl-6-(2-ethoxy-ethoxy)carbonyl-pyrimidine] yielded a pest or weed control at 1000 g/ha [1] of 70%, a pest or weed control at 1000 g/ha [2] of 100% and a pest or weed control at 1000 g/ha [3] of 90%. For the same compound, the pest or weed control at 1000 g/ha [4] was 50%, the pest or weed control at 1000 g/ha (Setaria faberi (SETFA) [5]) was 80% and the pest or weed control at 1000 g/ha (Solanum nigrum (SOLNI) [6]) was 90%. It also gave a pest or weed control at 1000 g/ha [7] of 70%, a pest or weed control at 1000 g/ha [8] of 100% and a pest or weed control at 1000 g/ha [9] of 100%. The pest or weed control at 1000 g/ha [10] was 60%, the pest or weed control at 1000 g/ha (Setaria faberi (SETFA) [11]) was 90% and the pest or weed control at 1000 g/ha (Solanum nigrum (SOLNI) [12]) was 90%.
`C=Cc1c(N)nc(-c2cc(F)cc(Cl)c2)nc1C(=O)OC` [Compound 61-61, 4-Amino-2-(3-chloro-5-fluorophenyl)-5-ethenyl-6-methoxycarbonyl-pyrimidine] was tested, and the pest or weed control at 1000 g/ha [1] was 0%, the pest or weed control at 1000 g/ha [2] was 0% and the pest or weed control at 1000 g/ha [3] was 0%. For the same compound, the pest or weed control at 1000 g/ha [4] was 0%, the pest or weed control at 1000 g/ha (Setaria faberi (SETFA) [5]) was 0% and the pest or weed control at 1000 g/ha (Solanum nigrum (SOLNI) [6]) was 30%. It also gave a pest or weed control at 1000 g/ha [7] of 0%, a pest or weed control at 1000 g/ha [8] of 10% and a pest or weed control at 1000 g/ha [9] of 0%. The pest or weed control at 1000 g/ha [10] was 0%, the pest or weed control at 1000 g/ha (Setaria faberi (SETFA) [11]) was 0% and the pest or weed control at 1000 g/ha (Solanum nigrum (SOLNI) [12]) was 20%.
`C=Cc1c(N)nc(-c2ccc(Cl)c(OC)c2F)nc1C(=O)O` [Compound 27-21, 4-amino-2-(4-chloro-2-fluoro-3-methoxyphenyl)-5-ethenylpyrimidine-6-carboxylic acid] was tested, and the pest or weed control at 1000 g/ha [1] was 90%, the pest or weed control at 1000 g/ha [2] was 100% and the pest or weed control at 1000 g/ha [3] was 100%. It also gave a pest or weed control at 1000 g/ha [4] of 100%, a pest or weed control at 1000 g/ha (Setaria faberi (SETFA) [5]) of 100% and a pest or weed control at 1000 g/ha (Solanum nigrum (SOLNI) [6]) of 100%. It also gave a pest or weed control at 1000 g/ha [7] of 90%, a pest or weed control at 1000 g/ha [8] of 100% and a pest or weed control at 1000 g/ha [9] of 90%. The pest or weed control at 1000 g/ha [10] was 90%, the pest or weed control at 1000 g/ha (Setaria faberi (SETFA) [11]) was 100% and the pest or weed control at 1000 g/ha (Solanum nigrum (SOLNI) [12]) was 90%.
`C/C=C\c1c(N)nc(-c2ccc(Cl)c(OC)c2F)nc1C(=O)OC` [27-62 (Z)] was tested, and the “Percentage damage ALOMY, pre-emergence” value [1] was 80%, the “Percentage damage AMARE, pre-emergence” value [2] was 100% and the “Percentage damage ECHCG, pre-emergence” value [3] was 90%. The “Percentage damage IPOHE, pre-emergence” value [4] was 100%, the “Percentage damage SETFA, pre-emergence” value (Setaria faberi (SETFA) [5]) was 80% and the “Percentage damage SOLNI, pre-emergence” value (Solanum nigrum (SOLNI) [6]) was 100%. For the same compound, the “Percentage damage ALOMY, post-emergence” value [7] was 70%, the “Percentage damage AMARE, post-emergence” value [8] was 100% and the “Percentage damage ECHCG, post-emergence” value [9] was 80%. For the same compound, the “Percentage damage IPOHE, post-emergence” value [10] was 100%, the “Percentage damage SETFA, post-emergence” value (Setaria faberi (SETFA) [11]) was 90% and the “Percentage damage SOLNI, post-emergence” value (Solanum nigrum (SOLNI) [12]) was 80%.
`C=Cc1c(N)nc(C2CC2)nc1C(=O)OC` [Compound 2-61, 4-Amino-2-cyclopropyl-5-ethenyl-6-methoxycarbonyl-pyrimidine] was tested, and the pest or weed control at 1000 g/ha [1] was 40%, the pest or weed control at 1000 g/ha [2] was 100% and the pest or weed control at 1000 g/ha [3] was 80%. For the same compound, the pest or weed control at 1000 g/ha [4] was 100%, the pest or weed control at 1000 g/ha (Setaria faberi (SETFA) [5]) was 20% and the pest or weed control at 1000 g/ha (Solanum nigrum (SOLNI) [6]) was 100%. It also gave a pest or weed control at 1000 g/ha [7] of 40%, a pest or weed control at 1000 g/ha [8] of 100% and a pest or weed control at 1000 g/ha [9] of 60%. The pest or weed control at 1000 g/ha [10] was 100%, the pest or weed control at 1000 g/ha (Setaria faberi (SETFA) [11]) was 80% and the pest or weed control at 1000 g/ha (Solanum nigrum (SOLNI) [12]) was 100%.
